# Data reported in ChEMBL document CHEMBL1141662, “Synthesis and antiproliferative activity of aryl- and heteroaryl-hydrazones derived from xanthone carbaldehydes” (Eur J Med Chem, 2008).
# Assays:
# MCF7 [1] = test: Antiproliferative activity against human MCF7 cells assessed as cell viability at 10 uM after 24 hrs by MTT assay; type: functional; settings: MCF7, 24 h, read-out: Activity
# [2] = Antiproliferative activity against human KB 3.1 cells assessed as cell viability at 10 uM after 24 hrs by MTT assay; type: functional; settings: KB 3-1, 24 h, read-out: Activity
# [3] = Antiproliferative activity against human KB 3.1 cells assessed as cell viability at 1 uM after 24 hrs by MTT assay; type: functional; settings: KB 3-1, 24 h, read-out: Activity
# MCF7 [4] = test: Antiproliferative activity against human MCF7 cells assessed as cell viability at 1 uM after 24 hrs by MTT assay; type: functional; settings: MCF7, 24 h, read-out: Activity
# [5] = Antiproliferative activity against human KB 3.1 cells after 72 hrs by MTT assay; type: functional, cell-based; settings: KB 3-1, 72 h
# [6] = Antiproliferative activity against human KB 3.1 cells after 24 hrs by MTT assay; type: functional, cell-based; settings: KB 3-1, 24 h
# MCF7 [7] = test: Ratio of IC50 for human […] cells after 24 hrs to IC50 for human MCF7 cells after 72 hrs by MTT assay; type: functional
# MCF7 [8] = test: Antiproliferative activity against human MCF7 cells after 24 hrs by MTT assay; type: functional, cell-based; settings: MCF7, 24 h
# MCF7 [9] = test: Antiproliferative activity against human MCF7 cells after 72 hrs by MTT assay; type: functional, cell-based; settings: MCF7, 72 h
# [10] = Ratio of IC50 for human KB 3.1 cells after 24 hrs to IC50 for human KB 3.1 cells after 72 hrs by MTT assay; type: functional
structure (smiles),measurement,setting,value
O=c1c2ccc(/C=N/Nc3ccccc3)cc2oc2cc(O)cc(O)c12,viability at 10 µM,MCF7 [1],100%
same,viability at 10 µM,[2],61%
same,viability at 1 µM,[3],100%
same,viability at 1 µM,MCF7 [4],100%
CC(=O)Oc1cc(OC(C)=O)c2c(=O)c3ccc(/C=N/Nc4ccccn4)cc3oc2c1,viability at 10 µM,MCF7 [1],100%
same,viability at 10 µM,[2],87%
same,viability at 1 µM,[3],100%
same,viability at 1 µM,MCF7 [4],100%
CC(=O)Oc1cc(OC(C)=O)c2c(=O)c3cc(/C=N/Nc4ccccc4)ccc3oc2c1,viability at 10 µM,MCF7 [1],100%
same,viability at 10 µM,[2],100%
same,viability at 1 µM,[3],100%
same,viability at 1 µM,MCF7 [4],100%
O=c1c2cccc(/C=N\Nc3ccccn3)c2oc2cc(O)cc(O)c12,viability at 10 µM,MCF7 [1],12%
same,viability at 10 µM,[2],3%
same,viability at 1 µM,[3],96%
same,viability at 1 µM,MCF7 [4],86%
O=c1c2ccc(/C=N/NC3=NCCN3)cc2oc2cc(O)cc(O)c12,viability at 10 µM,MCF7 [1],70%
same,viability at 10 µM,[2],80%
same,viability at 1 µM,[3],93%
same,viability at 1 µM,MCF7 [4],73%
COc1cccc2c1C(=O)c1c(O)c3c(c(O)c1C2=O)C[C@@](O)(C(=O)CO)C[C@@H]3O[C@H]1C[C@H](N)[C@H](O)[C@H](C)O1 [DOXORUBICIN],IC50,[5],0.0004 µM
same,IC50,[6],0.01 µM
CC(=O)Oc1cc(OC(C)=O)c2c(=O)c3cccc(/C=N\NC4=NCCN4)c3oc2c1,Ratio IC50,MCF7 [7],0.9
same,IC50,MCF7 [8],5.1 µM
same,IC50,[5],6.5 µM
same,viability at 10 µM,MCF7 [1],48%
same,IC50,MCF7 [9],5.6 µM
same,Ratio IC50,[10],1.05
same,IC50,[6],6.8 µM
same,viability at 10 µM,[2],66%
same,viability at 1 µM,[3],95%
same,viability at 1 µM,MCF7 [4],80%
O=c1c2cccc(/C=N\Nc3ccccc3)c2oc2cc(O)cc(O)c12,viability at 10 µM,MCF7 [1],100%
same,viability at 10 µM,[2],96%
same,viability at 1 µM,[3],100%
same,viability at 1 µM,MCF7 [4],100%
O=c1c2cc(/C=N/Nc3ccccn3)ccc2oc2cc(O)cc(O)c12,viability at 10 µM,MCF7 [1],41%
same,viability at 10 µM,[2],90%
same,viability at 1 µM,[3],95%
same,viability at 1 µM,MCF7 [4],58%
O=c1c2ccc(/C=N/Nc3ccccn3)cc2oc2cc(O)cc(O)c12,viability at 10 µM,MCF7 [1],3%
same,viability at 10 µM,[2],2%
same,viability at 1 µM,[3],77%
same,viability at 1 µM,MCF7 [4],100%
CC(=O)Oc1cc(OC(C)=O)c2c(=O)c3cc(/C=N/Nc4ccccn4)ccc3oc2c1,viability at 10 µM,MCF7 [1],70%
same,viability at 10 µM,[2],60%
same,viability at 1 µM,[3],98%
same,viability at 1 µM,MCF7 [4],85%
O=c1c2cc(/C=N/Nc3ccccc3)ccc2oc2cc(O)cc(O)c12,viability at 10 µM,MCF7 [1],72%
same,viability at 10 µM,[2],82%
same,viability at 1 µM,[3],100%
same,viability at 1 µM,MCF7 [4],100%
CC(=O)Oc1cc(OC(C)=O)c2c(=O)c3cccc(/C=N\Nc4ccccn4)c3oc2c1,viability at 10 µM,MCF7 [1],79%
same,viability at 10 µM,[2],90%
same,viability at 1 µM,[3],95%
same,viability at 1 µM,MCF7 [4],80%
CC(=O)Oc1cc(OC(C)=O)c2c(=O)c3cccc(/C=N\Nc4ccccc4)c3oc2c1,viability at 10 µM,MCF7 [1],100%
same,viability at 10 µM,[2],82%
same,viability at 1 µM,[3],100%
same,viability at 1 µM,MCF7 [4],100%
CC(=O)Oc1cc(OC(C)=O)c2c(=O)c3cc(/C=N/NC4=NCCN4)ccc3oc2c1,Ratio IC50,MCF7 [7],1.3
same,IC50,MCF7 [8],9.3 µM
same,IC50,[5],4.7 µM
same,viability at 10 µM,MCF7 [1],14%
same,IC50,MCF7 [9],7 µM
same,Ratio IC50,[10],2.4
same,IC50,[6],11.3 µM
same,viability at 10 µM,[2],14%
same,viability at 1 µM,[3],100%
same,viability at 1 µM,MCF7 [4],64%
CC(=O)Oc1cc(OC(C)=O)c2c(=O)c3ccc(/C=N/NC4=NCCN4)cc3oc2c1,Ratio IC50,MCF7 [7],0.8
same,IC50,MCF7 [8],1.9 µM
same,IC50,[5],1.8 µM
same,viability at 10 µM,MCF7 [1],13%
same,IC50,MCF7 [9],2.4 µM
same,Ratio IC50,[10],0.9
same,IC50,[6],1.6 µM
same,viability at 10 µM,[2],13%
same,viability at 1 µM,[3],85%
same,viability at 1 µM,MCF7 [4],35%
O=c1c2cccc(/C=N\NC3=NCCN3)c2oc2cc(O)cc(O)c12,viability at 10 µM,MCF7 [1],82%
same,viability at 10 µM,[2],75%
same,viability at 1 µM,[3],90%
same,viability at 1 µM,MCF7 [4],97%
CC(=O)Oc1cc(OC(C)=O)c2c(=O)c3ccc(/C=N/Nc4ccccc4)cc3oc2c1,viability at 10 µM,MCF7 [1],100%
same,viability at 10 µM,[2],100%
same,viability at 1 µM,[3],100%
same,viability at 1 µM,MCF7 [4],100%
O=c1c2cc(/C=N/NC3=NCCN3)ccc2oc2cc(O)cc(O)c12,viability at 10 µM,MCF7 [1],64%
same,viability at 10 µM,[2],92%
same,viability at 1 µM,[3],99%
same,viability at 1 µM,MCF7 [4],90%
